ChEMBL document CHEMBL1201862, “PubChem BioAssay data set” (2004)
The source made the active and inactive calls.

Experiments:
[1] = target: T1, Carboxy-terminal domain RNA polymerase II polypeptide A small phosphatase 1 (Homo sapiens, UniProt Q9GZU7); assay: inhibitors of CTDSP1, concentration-response testing, biochemical assay, absorbance-based, actives from ultra-high-throughput screening (AID 540297); assay type: functional
T1 sequence (Q9GZU7 whole entry): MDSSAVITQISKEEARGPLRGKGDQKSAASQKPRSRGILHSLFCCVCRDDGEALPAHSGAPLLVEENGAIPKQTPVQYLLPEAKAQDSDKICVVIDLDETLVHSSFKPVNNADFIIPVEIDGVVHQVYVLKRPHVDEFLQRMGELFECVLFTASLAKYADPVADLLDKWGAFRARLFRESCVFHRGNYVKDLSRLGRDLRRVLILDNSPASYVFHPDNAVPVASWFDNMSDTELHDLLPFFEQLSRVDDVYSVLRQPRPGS

[2] = target: Low molecular weight phosphotyrosine protein phosphatase (Homo sapiens, UniProt P24666); assay type: functional; settings: read-out: IC50_Mean
Low molecular weight phosphotyrosine protein phosphatase, sequence (P24666 whole entry): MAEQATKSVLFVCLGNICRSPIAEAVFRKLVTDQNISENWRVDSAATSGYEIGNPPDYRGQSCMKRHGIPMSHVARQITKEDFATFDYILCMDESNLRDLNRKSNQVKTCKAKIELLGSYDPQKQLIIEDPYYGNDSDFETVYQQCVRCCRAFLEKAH

[3] = target: T2, Dual specificity protein phosphatase 3 (Homo sapiens, UniProt P51452); assay: VHR1 phosphatase inhibitors, primary screen, biochemical, absorbance, uHTS (AID 1654)
T2 sequence (P51452 whole entry): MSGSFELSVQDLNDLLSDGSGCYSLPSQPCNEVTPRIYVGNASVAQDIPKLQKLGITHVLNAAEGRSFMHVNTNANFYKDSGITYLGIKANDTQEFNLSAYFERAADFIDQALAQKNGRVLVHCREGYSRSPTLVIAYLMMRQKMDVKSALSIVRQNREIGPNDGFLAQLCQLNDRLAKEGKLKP

[4] = target: T3, Dual specificity protein phosphatase 6 (Rattus norvegicus, UniProt Q64346); assay: MKP-3 phosphatase inhibitors, primary screen, biochemical, rat enzyme, in vitro (AID 425)
T3 sequence (Q64346 whole entry): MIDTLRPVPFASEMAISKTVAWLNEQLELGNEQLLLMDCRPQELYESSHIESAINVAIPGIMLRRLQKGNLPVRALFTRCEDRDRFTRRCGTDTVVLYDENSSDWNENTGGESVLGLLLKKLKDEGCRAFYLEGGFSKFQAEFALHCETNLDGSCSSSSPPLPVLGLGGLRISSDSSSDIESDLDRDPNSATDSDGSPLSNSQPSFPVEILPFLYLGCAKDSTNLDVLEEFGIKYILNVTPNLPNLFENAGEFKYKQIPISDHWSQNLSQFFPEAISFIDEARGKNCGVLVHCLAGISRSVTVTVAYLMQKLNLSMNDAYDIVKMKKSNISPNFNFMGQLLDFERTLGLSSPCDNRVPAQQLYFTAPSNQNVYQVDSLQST

[5] = target: T2, Dual specificity protein phosphatase 3; assay: VHR1 phosphatase inhibitors, biochemical (AID 1878)
Mu-type opioid receptor [6] = target: T4, Mu-type opioid receptor (Homo sapiens, UniProt P35372); assay: MOR antagonists, SAR follow-up, image-based (AID 2420); assay type: functional;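 also: compounds added before stimulation of receptor with agonist DAMGO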
T4 sequence (P35372 whole entry): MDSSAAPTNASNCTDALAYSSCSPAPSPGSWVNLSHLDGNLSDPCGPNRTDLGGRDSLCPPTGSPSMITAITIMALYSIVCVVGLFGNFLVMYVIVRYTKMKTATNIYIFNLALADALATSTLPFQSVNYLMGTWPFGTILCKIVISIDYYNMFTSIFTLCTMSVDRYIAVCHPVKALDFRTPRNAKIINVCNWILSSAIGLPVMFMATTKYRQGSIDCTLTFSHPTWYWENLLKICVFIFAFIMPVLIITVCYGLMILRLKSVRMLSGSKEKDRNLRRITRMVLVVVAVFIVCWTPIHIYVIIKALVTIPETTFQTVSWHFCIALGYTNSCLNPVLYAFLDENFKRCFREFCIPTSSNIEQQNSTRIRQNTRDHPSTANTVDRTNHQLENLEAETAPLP

[7] = target: T5, Kappa-type opioid receptor (Homo sapiens, UniProt P41145); assay type: functional
T5 sequence (P41145 whole entry): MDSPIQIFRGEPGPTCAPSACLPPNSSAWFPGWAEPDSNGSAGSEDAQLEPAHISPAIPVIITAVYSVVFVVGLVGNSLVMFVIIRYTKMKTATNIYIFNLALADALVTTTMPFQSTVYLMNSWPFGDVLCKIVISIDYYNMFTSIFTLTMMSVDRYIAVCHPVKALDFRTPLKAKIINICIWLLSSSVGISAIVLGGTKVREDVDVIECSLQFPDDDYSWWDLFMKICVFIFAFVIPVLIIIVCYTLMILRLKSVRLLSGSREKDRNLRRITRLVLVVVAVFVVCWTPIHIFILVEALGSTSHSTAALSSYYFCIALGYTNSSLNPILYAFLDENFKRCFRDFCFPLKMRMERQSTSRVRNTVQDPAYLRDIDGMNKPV

Mu-type opioid receptor [8] = target: T4, Mu-type opioid receptor; assay: MOR agonists by imaging, SAR follow-up, image-based (AID 2352); assay type: functional
[9] = target: T5, Kappa-type opioid receptor; assay: SAR analysis of small molecule agonists of the kappa opioid receptor via a luminescent beta-arrestin assay. [Related pubchem assays (depositor defined):AID1777, AID1786, AID1966, AID2133, AID2136, AID2348, AID2352, AID2357, AID2359, AID2370, AID2420, AID2478, AID2491, AID2492, AID2493, AID2497, AID2498, AID2500, AID449737, AID488822, AID488842]; assay type: functional
[10] = target: T6, Delta-type opioid receptor (Homo sapiens, UniProt P41143); assay: HTS Image-Based Screen for Antagonists of the DOR Receptor. [Related pubchem assays (depositor defined):AID1777, AID1785, AID1786, AID2133]; assay type: functional
T6 sequence (P41143 whole entry): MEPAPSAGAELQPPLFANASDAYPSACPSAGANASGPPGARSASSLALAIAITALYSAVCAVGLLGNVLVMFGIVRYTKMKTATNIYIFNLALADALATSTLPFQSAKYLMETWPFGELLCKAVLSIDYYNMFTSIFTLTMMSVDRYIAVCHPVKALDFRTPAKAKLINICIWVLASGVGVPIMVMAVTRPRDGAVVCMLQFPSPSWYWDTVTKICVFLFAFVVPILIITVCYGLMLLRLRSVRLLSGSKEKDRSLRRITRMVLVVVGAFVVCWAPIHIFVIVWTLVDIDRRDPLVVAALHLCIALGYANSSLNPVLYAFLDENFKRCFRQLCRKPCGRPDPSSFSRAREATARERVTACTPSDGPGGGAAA

Mu-type opioid receptor [11] = target: T4, Mu-type opioid receptor; assay: HTS Image-Based Screen for Agonists of the MOR Receptor. [Related pubchem assays (depositor defined):AID1777, AID1785, AID1786, AID2133]; assay type: functional
[12] = target: T6, Delta-type opioid receptor; assay: HTS Image-Based Screen for Agonists of the DOR Receptor. [Related pubchem assays (depositor defined):AID1777, AID1786, AID2133]; assay type: functional
[13] = target: T5, Kappa-type opioid receptor; assay: KOR agonist analogs, imaging readout, SAR follow-up, image-based (AID 2359); assay type: functional
[14] = target: T6, Delta-type opioid receptor; assay: DOR agonists, SAR follow-up, image-based (AID 2370); assay type: functional
[15] = target: T5, Kappa-type opioid receptor; assay type: functional; remark: listed apart in the source
[16] = target: T6, Delta-type opioid receptor; assay: DOR antagonists, SAR follow-up, image-based (AID 2357); assay type: functional
[17] = target: T5, Kappa-type opioid receptor; assay: KOR antagonists by imaging, SAR follow-up, image-based (AID 2348); assay type: functional
[18] = target: T7, Polyadenylate-binding protein 1 (Homo sapiens, UniProt P11940); assay: PABP1 MLLE–PAM2 binding inhibitor potency, dose response, biochemical, fluorescence polarization, FITC-PAM2 peptide (AID 602259); assay type: functional; settings: read-out: IC50_Mean
T7 sequence (P11940 whole entry): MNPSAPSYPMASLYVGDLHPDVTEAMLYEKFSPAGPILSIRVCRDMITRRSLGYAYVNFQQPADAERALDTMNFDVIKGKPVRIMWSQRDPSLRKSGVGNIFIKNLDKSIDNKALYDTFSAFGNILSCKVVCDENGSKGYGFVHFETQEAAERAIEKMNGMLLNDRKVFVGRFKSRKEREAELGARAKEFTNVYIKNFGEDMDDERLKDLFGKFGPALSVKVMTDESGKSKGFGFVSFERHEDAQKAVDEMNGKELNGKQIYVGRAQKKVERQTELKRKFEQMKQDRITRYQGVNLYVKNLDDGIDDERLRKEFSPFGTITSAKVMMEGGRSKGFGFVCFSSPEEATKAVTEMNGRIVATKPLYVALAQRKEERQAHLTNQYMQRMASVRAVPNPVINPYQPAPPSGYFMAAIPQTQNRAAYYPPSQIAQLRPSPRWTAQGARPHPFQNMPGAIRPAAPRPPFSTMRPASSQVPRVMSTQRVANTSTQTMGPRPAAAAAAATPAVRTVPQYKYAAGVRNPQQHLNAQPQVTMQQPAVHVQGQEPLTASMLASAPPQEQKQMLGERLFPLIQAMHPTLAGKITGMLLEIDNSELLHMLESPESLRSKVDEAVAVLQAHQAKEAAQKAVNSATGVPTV

[19] = target: T8, Alkaline phosphatase, tissue-nonspecific isozyme (Homo sapiens, UniProt P05186); assay: TNAP enzyme inhibition by screening hits, dose response, selectivity assay for mouse IAP inhibitor project, biochemical, human TNAP, uHTS hits (AID 488906); assay type: functional
T8 sequence (P05186 whole entry): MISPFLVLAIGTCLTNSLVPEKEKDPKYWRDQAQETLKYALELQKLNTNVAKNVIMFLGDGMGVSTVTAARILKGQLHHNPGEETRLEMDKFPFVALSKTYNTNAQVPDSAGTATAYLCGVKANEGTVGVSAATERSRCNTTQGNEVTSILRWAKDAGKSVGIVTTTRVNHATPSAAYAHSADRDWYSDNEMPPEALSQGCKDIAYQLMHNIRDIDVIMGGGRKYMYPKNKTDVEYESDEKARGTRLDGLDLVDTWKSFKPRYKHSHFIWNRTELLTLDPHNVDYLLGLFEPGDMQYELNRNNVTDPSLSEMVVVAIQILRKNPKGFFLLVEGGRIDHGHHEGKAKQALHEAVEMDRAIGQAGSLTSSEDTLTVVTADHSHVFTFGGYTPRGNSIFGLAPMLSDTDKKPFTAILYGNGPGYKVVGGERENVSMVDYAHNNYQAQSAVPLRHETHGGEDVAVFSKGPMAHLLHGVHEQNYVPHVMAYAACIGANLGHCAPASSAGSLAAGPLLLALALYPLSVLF

[20] = target: T7, Polyadenylate-binding protein 1; assay: PABP1 MLLE–PAM2 interaction inhibitors, dose response, miRNA deadenylation inhibitor project, biochemical, fluorescence polarization, Cy5-PAM2 peptide, secondary (AID 602260); assay type: functional; settings: read-out: IC50_Mean
[21] = target: Intestinal-type alkaline phosphatase (Mus musculus, UniProt P24822); assay: PubChem AID 488785; assay type: functional
Intestinal-type alkaline phosphatase (Mus musculus, UniProt P24822), sequence (P24822 whole entry): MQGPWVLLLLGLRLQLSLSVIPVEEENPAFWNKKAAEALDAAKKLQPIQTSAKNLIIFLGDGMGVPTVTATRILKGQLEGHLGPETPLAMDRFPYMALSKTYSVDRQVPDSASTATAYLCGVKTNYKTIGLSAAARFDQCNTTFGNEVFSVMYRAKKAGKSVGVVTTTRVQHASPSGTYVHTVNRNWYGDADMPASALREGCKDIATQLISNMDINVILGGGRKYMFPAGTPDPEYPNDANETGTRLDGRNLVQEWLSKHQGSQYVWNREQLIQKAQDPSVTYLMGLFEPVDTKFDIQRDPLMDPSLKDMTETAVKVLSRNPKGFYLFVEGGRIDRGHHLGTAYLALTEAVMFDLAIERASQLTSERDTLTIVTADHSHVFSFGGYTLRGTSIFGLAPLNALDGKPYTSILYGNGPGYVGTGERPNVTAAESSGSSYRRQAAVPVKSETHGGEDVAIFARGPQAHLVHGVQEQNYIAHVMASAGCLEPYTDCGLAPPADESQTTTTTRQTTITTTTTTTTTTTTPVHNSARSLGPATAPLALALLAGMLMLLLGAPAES

[22] = target: Intestinal-type alkaline phosphatase (Homo sapiens, UniProt P09923); assay: activation of human intestinal alkaline phosphatase – biochemical, dose response (AID 488873); assay type: functional
Intestinal-type alkaline phosphatase (Homo sapiens, UniProt P09923), sequence (P09923 whole entry): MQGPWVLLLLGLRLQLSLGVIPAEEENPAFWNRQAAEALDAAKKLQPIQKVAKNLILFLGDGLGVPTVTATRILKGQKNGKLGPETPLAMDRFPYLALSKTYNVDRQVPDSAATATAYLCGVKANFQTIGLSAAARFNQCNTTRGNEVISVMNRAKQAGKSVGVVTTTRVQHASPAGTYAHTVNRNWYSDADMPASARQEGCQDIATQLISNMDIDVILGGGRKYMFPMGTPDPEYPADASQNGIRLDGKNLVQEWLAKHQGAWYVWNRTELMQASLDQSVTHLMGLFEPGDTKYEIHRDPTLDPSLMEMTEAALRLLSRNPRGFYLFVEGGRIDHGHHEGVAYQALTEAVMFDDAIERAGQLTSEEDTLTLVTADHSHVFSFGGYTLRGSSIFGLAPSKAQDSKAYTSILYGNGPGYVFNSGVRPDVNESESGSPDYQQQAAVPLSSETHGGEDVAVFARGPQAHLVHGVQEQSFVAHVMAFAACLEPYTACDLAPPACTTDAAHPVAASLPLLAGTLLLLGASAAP

In the case of Cc1ccc(-n2c(=O)c3cc4c(=O)n(-c5ccc(C)c(C)c5)c(=O)c4c(C(=O)c4ccc(C(=O)O)cc4)c3c2=O)cc1C, the IC50 [1] is reported as 1.12 µM (active), the IC50 [2] is reported as 3.13 µM (active) and the IC50 [3] is reported as 3.39 µM (active). The IC50 [4] was 18.9 µM (active) and the IC50 [5] was 5.31 µM (active).

With Cc1cccc(C)c1NC(=O)C1(N(Cc2ccco2)C(=O)c2ccccn2)CCCC1 the IC50 (Mu-type opioid receptor [6]) was > 32 µM (inactive), the EC50 [7] was 4.19 µM and the EC50 (Mu-type opioid receptor [8]) was > 32 µM (inactive). For the same molecule, the EC50 [9] was 4.05 µM (active), the IC50 [10] was > 32 µM (inactive) and the EC50 (Mu-type opioid receptor [11]) was > 32 µM (inactive). The EC50 [12] was > 32 µM (inactive), the EC50 [13] was 1.11 µM (active) and the EC50 [14] was > 32 µM (inactive). For the same molecule, the EC50 [15] was 1.94 µM, the IC50 [16] was > 32 µM (inactive) and the IC50 [17] was > 32 µM (inactive).

With CCOC(=O)CN1C(=O)/C(=C2\SC(=S)N(NC(=O)c3cccnc3)C2=O)c2ccccc21 the IC50 [18] was > 66 µM (inactive), the IC50 [19] was > 100 µM (inactive) and the IC50 [20] was > 66 µM (inactive). The IC50 [21] was 11.2 µM (active) and the EC50 [22] was 25.5 µM (active).
